What was measured:
CDK9/Cyclin T1 = biological target: T1, CDK9/Cyclin T1 (Homo sapiens, UniProt P50750); test: LanthaScreen Eu Kinase Binding Assay, CDK9/Cyclin T1; details: tracer 236, read-out: CDK9/Cyclin T1 (activity range), Kd
T1 construct: purchased Invitrogen
Protocol: This protocol describes how the LanthaScreen Eu Kinase Binding Assay was performed to determine dissociation constants (Kd) of compounds of general formula (I) and CDK/Cyclin complexes. The principle behind this assay is based upon the binding and displacement of an Alexa Fluor 647-labeled tracer, which binds to the active site of kinases. Binding of the tracer to the kinase is detected using a Eu-labeled antibody. Simultaneous binding of both the tracer and antibody to the kinase gives rise to a FRET-signal. Binding of an inhibitor to the kinase competes for binding with the tracer, resulting in a loss of FRET.
The compounds of general formula (I) summarized in Table 1 were diluted from a 10 mM DMSO stock solution 1:10 in a total volume of 15 μL DMSO. This compound predilution was then serial diluted 1:3 over 8 steps in DMSO and briefly spun down. Each compound solution was now diluted 1:33.33 in kinase buffer (HEPES: 20 mM, pH: 8.0; MgCl2: 10 mM; DTT: 1 mM; Brij-35: 0.01%), mixed thoroughly and spun down. For every sample, 5 μL of the diluted compound were mixed with 5 μL tracer working solution (e.g. 60 nM tracer 236 in kinase buffer for CDK2/Cyclin A) and 5 μL CDK/Cyclin/Anti-GST-AB-working solution (e.g. 15 nM CDK2/Cyclin A, 1:250 dilution of Anti-GST-AB in kinase buffer) in a well of a small volume 384 well plate (Corning Incorporated, Corning, N.Y., USA; order no. 3673). The tracer concentration was adjusted to its dissociation constant (Kd) for the CDK/Cyclin, which was 30 nM for CDK2/Cyclin A, CDK7/Cyclin H and CDK9/Cyclin T1, 20 nM for CDK8/Cyclin C, and 35 nM for CDK9/Cyclin K. For negative controls, in each well 5 μL of DMSO working solution (3% DMSO diluted in kinase buffer) was mixed with 5 μL Anti-GST-AB working solution (e.g. 1:250 dilution of Anti-GST-AB in kinase buffer for CDK2/Cyclin A) and 5 μL Tracer working solution (e.g. 60 nM Tracer 236 in kinase buffer for CDK2/Cyclin A). For positive controls, in each well 5 μL of DMSO working solution (3% DMSO diluted in kinase buffer) was mixed with 5 μL CDK/Cyclin/Anti-GST-AB-working solution: (e.g. 15 nM CDK2/Cyclin A, 1:250 dilution of Anti-GST-AB in kinase buffer) and 5 μL Tracer working solution (e.g. 60 nM Tracer 236 in kinase buffer for CDK2/Cyclin A). Positive and negative controls were calculated from at least 8 different sample wells. The 384 well plates were mixed in a Teleshaker plate mixer (Beckman Coulter, Brea, Calif., USA) at 2000 rpm for 40 sec, and incubated for 1 h at room temperature before reading. The FRET signal was measured at 340 nm excitation, 665 nm and 615 nm emission (for the kinase tracer and LanthaScreen Eu-AB, respectively) with an Envision spectrophotometer (Perkin Elmer, Waltham, Mass., USA) with 50 μs delay and 300 μs integration time. Kd values were determined from the sigmoidal dose response curves with the software Quattro Workflow (Quattro GmbH, Munich, Germany).

Hela cells = test: Cell viability assay, Hela cells; assay type: cell-based; details: Homo sapiens, 72 h, Cell Titer Glo, read-out: Cell Viability - Hela cells (activity range), IC50
Protocol: Hela- or MDAMB468-Cells were maintained in RPMI 1640 or McCoy's 5A cell culture medium+glutamine (PAN Biotech GmbH, Aidenbach, Germany; order no. P04-22100; P04-05500) supplemented with 10% fetal calf serum “Gold” (PAA Laboratories GmbH, Pasching, Austria; order no. A15-151) and grown at 37° C., 5% CO2. For the cell viability assay, cells were seeded with a density of 400 (Hela cells, DSMZ Braunschweig order no. ACC57) or 800 (MDAMB468 cells, ATCC order no. HTB-132) per well in 25 μL in 384-well plates (Greiner Bio-One, Frickenhausen, Germany; order no. 781080). After overnight incubation at 37° C./5% CO2, 25 nL or 75 nL compound were added to each sample well by using BIOMEK FXP Laboratory Automation Workstation (Beckman Coulter, USA). Wells with cells and 0.1% or 0.3% DMSO in culture medium were used as positive controls, wells with cells and 10 μM staurosporine in culture medium were used as negative controls. The cells were incubated with the compounds for 72 h at 37° C./5% CO2. For measurement of cell viability 25 μL Cell Titer Glo reagent (Promega, Madison, USA; order no. G7573), 1:2 diluted with cell culture medium, was added to each well. The 384 well-plates were placed for 2 min on a orbital microplate shaker and incubated for further 10 min at room temperature to stabilize the luminescence signal. Luminescence was measured by Envision Plate Reader (Perkin Elmer, USA). IC50 values were calculated with the software Excel Fit (IDBS, Guildford, UK) from 3-fold dilution series comprising at least 8 concentrations in duplicates.

T1 sequence (P50750 whole entry): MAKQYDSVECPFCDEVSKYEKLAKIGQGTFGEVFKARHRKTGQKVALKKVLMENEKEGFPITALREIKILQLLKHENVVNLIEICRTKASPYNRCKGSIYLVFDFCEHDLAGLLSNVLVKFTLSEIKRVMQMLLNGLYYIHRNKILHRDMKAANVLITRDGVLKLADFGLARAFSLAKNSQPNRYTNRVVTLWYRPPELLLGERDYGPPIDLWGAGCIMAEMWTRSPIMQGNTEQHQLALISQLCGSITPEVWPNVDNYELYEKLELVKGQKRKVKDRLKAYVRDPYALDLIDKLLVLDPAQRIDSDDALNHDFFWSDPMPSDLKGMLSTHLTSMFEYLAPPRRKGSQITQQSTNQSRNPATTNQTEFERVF
T1 sequence (O60563 whole entry partner): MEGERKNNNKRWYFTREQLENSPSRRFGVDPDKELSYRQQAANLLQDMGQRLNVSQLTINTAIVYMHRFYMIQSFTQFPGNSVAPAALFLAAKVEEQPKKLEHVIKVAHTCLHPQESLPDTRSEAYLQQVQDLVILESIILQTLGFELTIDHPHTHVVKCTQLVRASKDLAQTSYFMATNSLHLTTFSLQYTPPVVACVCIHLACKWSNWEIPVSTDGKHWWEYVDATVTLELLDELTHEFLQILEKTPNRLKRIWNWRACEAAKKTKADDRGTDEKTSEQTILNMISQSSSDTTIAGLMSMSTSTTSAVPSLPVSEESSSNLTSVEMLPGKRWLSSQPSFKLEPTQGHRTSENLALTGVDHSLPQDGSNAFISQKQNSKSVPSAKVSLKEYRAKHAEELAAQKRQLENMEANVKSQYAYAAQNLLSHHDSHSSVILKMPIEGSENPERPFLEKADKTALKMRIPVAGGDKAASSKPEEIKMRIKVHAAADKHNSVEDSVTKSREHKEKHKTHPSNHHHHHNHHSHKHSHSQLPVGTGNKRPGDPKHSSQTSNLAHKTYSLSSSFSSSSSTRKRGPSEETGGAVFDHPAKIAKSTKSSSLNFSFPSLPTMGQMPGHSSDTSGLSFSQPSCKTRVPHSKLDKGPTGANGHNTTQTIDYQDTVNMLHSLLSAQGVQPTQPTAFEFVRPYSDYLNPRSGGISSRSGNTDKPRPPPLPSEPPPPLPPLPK

Structure (SMILES) | Kd (CDK9/Cyclin T1) [nM] | IC50 (Hela cells) [nM]
COc1ccccc1-c1ccnc(Nc2ccccc2)c1 [Compound B1, 4-(2-Methoxyphenyl)-N-phenylpyridin-2-amine] | 1000 to 10000 | 
COc1ccccc1-c1ccnc(Nc2cccc([N+](=O)[O-])c2)c1 [Compound C1, 4-(2-Methoxyphenyl)-N-(3-nitrophenyl)pyridin-2-amine] | 100 to 1000 | 
COc1ccccc1-c1ccnc(Nc2cccc(S(N)(=O)=O)c2)c1 [Compound D1, 3-[(4-(2-Methoxyphenyl)pyridin-2-yl)amino]benzenesulfonamide] | < 100 | 100 to 1000
COc1ccccc1-c1ccnc(Nc2ccc(S(N)(=O)=O)cc2)c1 [Compound E1, 4-[(4-(2-Methoxyphenyl)pyridin-2-yl)amino]benzenesulfonamide] | 100 to 1000 | > 10000
COc1ccccc1-c1ccnc(Nc2cccc(S(C)(=O)=O)c2)c1 [Compound F1, 4-(2-Methoxyphenyl)-N-(3-(methylsulfonyl)phenyl)pyridin-2-amine] | < 100 | 1000 to 10000
COc1cc(F)ccc1-c1ccnc(Nc2cccc(CS(N)(=O)=O)c2)c1 [Compound G1, [3-((4-(4-Fluoro-2-methoxyphenyl)pyridin-2-yl)amino)phenyl]-methanesulfonamide] | < 100 | 1000 to 10000
COc1cc(F)ccc1-c1ccnc(Nc2cccc(CS(=O)(=O)N(C)C)c2)c1 [Compound G3, 1-[3-((4-(4-Fluoro-2-methoxyphenyl)pyridin-2-yl)amino)phenyl]-N,N-dimethylmethanesulfonamide] | < 100 | > 10000
COc1cc(F)ccc1-c1ccnc(Nc2cccc(NS(C)(=O)=O)c2)c1 [Compound J1, N-[3-((4-(4-Fluoro-2-methoxyphenyl)pyridin-2-yl)amino)phenyl]-methanesulfonamide] | < 100 | 1000 to 10000
COc1cc(F)ccc1-c1ccnc(Nc2cccc(NC(C)=O)c2)c1 [Compound J2, N-[3-((4-(4-Fluoro-2-methoxyphenyl)pyridin-2-yl)amino)phenyl]-acetamide] | < 100 | > 10000
CCCNS(=O)(=O)Cc1cccc(Nc2cc(-c3ccc(F)cc3OC)ccn2)c1 [Compound K1, 1-[3-((4-(4-Fluoro-2-methoxyphenyl)pyridin-2-yl)amino)phenyl]-N-propylmethanesulfonamide] | < 100 | > 10000

Source: patent US9242937B2, “Pharmaceutically active disubstituted pyridine derivatives” (Bayer Intellectual Property GmbH, priority 2011, dated 2016)
